Source: ChEMBL document CHEMBL1201862, “PubChem BioAssay data set” (2004)
Counter-ions that a name gives are not always drawn.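 Following 48 hours of exposure in 96-well plates, responses at five concentrations were used to interpolate endpoints linearly. GI50 = concentration required for 50% inhibition of growth.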 Activity calls are given as the source filed them. No stated cut-off is given here; in the data, active = GI50 up to about 1.1 µM and inactive = higher.

Legend:
Experiment in all cases: NCI-60 cell line screen, 48 h
A549 = test system: A549
CCRF-CEM = test system: CCRF-CEM
EKVX = test system: EKVX
HCT-15 = test system: HCT-15
HT-29 = test system: HT-29
IGROV-1 = test system: IGROV-1
LOX IMVI = test system: LOX IMVI
M14 = test system: M14
Malme-3M = test system: Malme-3M
OVCAR-5 = test system: OVCAR-5
RXF 393 = test system: RXF 393
SF-295 = test system: SF-295
SK-MEL-2 = test system: SK-MEL-2
SN12C = test system: SN12C
SNB-19 = test system: SNB-19
UACC-257 = test system: UACC-257
UO-31 = test system: UO-31
SR = test system: SR

Row | SMILES | GI50 (A549) | GI50 (CCRF-CEM) | GI50 (EKVX) | GI50 (HCT-15) [µM] | GI50 (HT-29) | GI50 (IGROV-1) | GI50 (LOX IMVI) | GI50 (M14) | GI50 (Malme-3M) | GI50 (OVCAR-5) | GI50 (RXF 393) | GI50 (SF-295) | GI50 (SK-MEL-2) | GI50 (SN12C) | GI50 (SNB-19) | GI50 (UACC-257) | GI50 (UO-31) | GI50 (SR)
1 | C1=c2ccccc2=C2C(=C(c3ccccc3)C(c3ccccc3)=NN2c2ccccc2)S1 | > 100 µM (inactive) | > 100 µM (inactive) | > 100 µM (inactive) | > 100 | > 100 µM (inactive) | > 100 µM (inactive) | > 100 µM (inactive) | > 100 µM (inactive) | > 100 µM (inactive) | > 100 µM (inactive) | > 100 µM (inactive) | > 100 µM (inactive) | > 100 µM (inactive) | > 100 µM (inactive) | > 100 µM (inactive) | > 100 µM (inactive) | > 100 µM (inactive) | 
2 | O=C1NC2OCC(O)C(O)C2O1 (stereo not given) | > 100 µM (inactive) | > 100 µM (inactive) | > 100 µM (inactive) | > 100 | > 100 µM (inactive) | > 100 µM (inactive) | > 100 µM (inactive) | > 100 µM (inactive) | > 100 µM (inactive) | > 100 µM (inactive) |  | > 100 µM (inactive) | > 100 µM (inactive) | > 100 µM (inactive) | > 100 µM (inactive) | > 100 µM (inactive) | > 100 µM (inactive) | > 100 µM (inactive)
3 | Clc1ccc(/N=N/c2nc3ccccc3nc2/N=N/c2ccc(Cl)cc2Cl)c(Cl)c1 | > 100 µM (inactive) |  | > 100 µM (inactive) | > 100 | > 100 µM (inactive) | > 100 µM (inactive) | > 100 µM (inactive) |  | > 100 µM (inactive) |  | > 100 µM (inactive) | > 100 µM (inactive) | > 100 µM (inactive) | > 100 µM (inactive) | 65.8 µM (inactive) | > 100 µM (inactive) | > 100 µM (inactive) | 33.5 µM (inactive)
4 | CN(C)c1nc(Oc2nc(N(C)C)nc(N(C)C)n2)nc(N(C)C)n1 | 67 µM (inactive) | > 100 µM (inactive) | > 100 µM (inactive) | > 100 | > 100 µM (inactive) | > 100 µM (inactive) | > 100 µM (inactive) | > 100 µM (inactive) | > 100 µM (inactive) | > 100 µM (inactive) | > 100 µM (inactive) | > 100 µM (inactive) | > 100 µM (inactive) | > 100 µM (inactive) | > 100 µM (inactive) | 56.5 µM (inactive) | > 100 µM (inactive) | > 100 µM (inactive)
5 | O=c1c(Sc2c(O)c3ccccc3c3ccccc3c2=O)c(O)c2ccccc2c2ccccc12 | 44.6 µM (inactive) | 14 µM (inactive) | 89.3 µM (inactive) | 20.5 | 66.2 µM (inactive) | 47.2 µM (inactive) | 25.1 µM (inactive) | 46.6 µM (inactive) | 25.2 µM (inactive) | 53.2 µM (inactive) | 50.7 µM (inactive) | 55.7 µM (inactive) | 18.9 µM (inactive) | 20.9 µM (inactive) | 19.3 µM (inactive) | 41.9 µM (inactive) | 43.6 µM (inactive) | 
6 | C=CCc1cc(OC)c2c(c1)C(O)CC(c1ccc(OC)c(OC)c1)O2 (stereo not given) | > 100 µM (inactive) | > 100 µM (inactive) | > 100 µM (inactive) | > 100 | > 100 µM (inactive) | > 100 µM (inactive) |  | > 100 µM (inactive) |  | > 100 µM (inactive) |  | > 100 µM (inactive) | > 100 µM (inactive) | > 100 µM (inactive) | > 100 µM (inactive) | 72.4 µM (inactive) | > 100 µM (inactive) | > 100 µM (inactive)
7 | CCCCCCCCCCCc1c(O)c(=O)c2c(oc3c(=O)c(CCCCCCCCCCC)c(O)c(=O)c3n2-c2ccc(N(C)C)cc2)c1=O | 23.6 µM (inactive) | 26 µM (inactive) | 24 µM (inactive) | 18.6 | 23.1 µM (inactive) | 24.3 µM (inactive) | 24.2 µM (inactive) | 16.3 µM (inactive) | 22.4 µM (inactive) | 23.8 µM (inactive) | 25 µM (inactive) | 21.8 µM (inactive) | 21.7 µM (inactive) | 19.2 µM (inactive) | 20.8 µM (inactive) | 20 µM (inactive) |  | 65.2 µM (inactive)
8 | CC(C)NC1CCCCC2c3ccccc3C12O (stereo not given) | > 100 µM (inactive) | > 100 µM (inactive) | > 100 µM (inactive) | > 100 | > 100 µM (inactive) |  | > 100 µM (inactive) | > 100 µM (inactive) | > 100 µM (inactive) |  | > 100 µM (inactive) | > 100 µM (inactive) | > 100 µM (inactive) | > 100 µM (inactive) | > 100 µM (inactive) | > 100 µM (inactive) | > 100 µM (inactive) | > 100 µM (inactive)
9 | CCN(CC)c1ccc(/N=C2\C=C(Cl)C(=O)c3ncccc32)c(C)c1 | 9.71 µM (inactive) | 1.68 µM (inactive) | 11.2 µM (inactive) | 3.85 | 15.8 µM (inactive) | 11.1 µM (inactive) | 5.15 µM (inactive) | 2.9 µM (inactive) | 2.88 µM (inactive) |  | 3.92 µM (inactive) | 15.6 µM (inactive) | 7.74 µM (inactive) | 7.41 µM (inactive) | 21.3 µM (inactive) | 2.48 µM (inactive) | 12.4 µM (inactive) | 
10 | O=C(CCCCCCCCC(=O)OCCCn1cc(C(=O)NC(=O)OCc2ccccc2)c(=O)[nH]c1=O)OCCCn1cc(C(=O)NC(=O)OCc2ccccc2)c(=O)[nH]c1=O | > 100 µM (inactive) | > 100 µM (inactive) | > 100 µM (inactive) | > 100 | > 100 µM (inactive) | > 100 µM (inactive) | > 100 µM (inactive) | > 100 µM (inactive) | > 100 µM (inactive) | > 100 µM (inactive) | > 100 µM (inactive) | > 100 µM (inactive) | > 100 µM (inactive) | > 100 µM (inactive) | > 100 µM (inactive) | > 100 µM (inactive) | > 100 µM (inactive) | 
11 | NCc1cc(O)c(O)c(O)c1 | > 100 µM (inactive) | 38.5 µM (inactive) | > 100 µM (inactive) | > 100 | > 100 µM (inactive) | > 100 µM (inactive) | 34.8 µM (inactive) | > 100 µM (inactive) | > 100 µM (inactive) | > 100 µM (inactive) | > 100 µM (inactive) | > 100 µM (inactive) | > 100 µM (inactive) | > 100 µM (inactive) | > 100 µM (inactive) | > 100 µM (inactive) | > 100 µM (inactive) | 91.2 µM (inactive)
12 | Cc1ccc(NC(=O)C(=O)CC(=O)c2c(C)[n+]([O-])c3ccccc3[n+]2[O-])cc1 | 31 µM (inactive) | 20.1 µM (inactive) | 16.9 µM (inactive) | 31.8 | 33.6 µM (inactive) | 22 µM (inactive) | 20 µM (inactive) | 23.9 µM (inactive) | 27.9 µM (inactive) | 40.6 µM (inactive) | 54.8 µM (inactive) | 51.1 µM (inactive) | 21 µM (inactive) | 36.5 µM (inactive) | 54.1 µM (inactive) | 24.2 µM (inactive) | > 100 µM (inactive) | 20.5 µM (inactive)
13 | CCOC(=O)c1ccc(N2C(=S)N(C(=O)c3ccccc3)C(=N/c3ccccc3)/C2=N\c2ccccc2)cc1 | 52.8 µM (inactive) |  | > 100 µM (inactive) | > 100 | > 100 µM (inactive) | 49.5 µM (inactive) |  | 27.2 µM (inactive) | 53.5 µM (inactive) | > 100 µM (inactive) | > 10 µM (inactive) | 65.9 µM (inactive) | 40.6 µM (inactive) | > 100 µM (inactive) | 72.9 µM (inactive) | > 100 µM (inactive) | 56.9 µM (inactive) | > 100 µM (inactive)
14 | CS(=O)(=O)Sc1ccc(Cl)cc1 | 3.75 µM (inactive) | 2.54 µM (inactive) | 3.82 µM (inactive) | 10.1 | 9.75 µM (inactive) | 2.85 µM (inactive) | 3.36 µM (inactive) | 12.8 µM (inactive) | 11.6 µM (inactive) | 17.6 µM (inactive) | 7.89 µM (inactive) | 3.04 µM (inactive) | 6.84 µM (inactive) | 3.69 µM (inactive) | 3.4 µM (inactive) | 8.53 µM (inactive) | 3.29 µM (inactive) | 3.59 µM (inactive)
15 | Nc1nc(Cl)c2ncn(CCCC(c3ccccc3)P(=O)(O)O)c2n1 (stereo not given) | > 100 µM (inactive) | > 100 µM (inactive) |  | > 100 | > 100 µM (inactive) | > 100 µM (inactive) | > 100 µM (inactive) | > 100 µM (inactive) | > 100 µM (inactive) | > 100 µM (inactive) |  | > 100 µM (inactive) | > 100 µM (inactive) | > 100 µM (inactive) | > 100 µM (inactive) | > 100 µM (inactive) | > 100 µM (inactive) | > 100 µM (inactive)
16 | CCCCCC#COC1CC(C)CC[C@@H]1C(C)C (stereo not given in full) | 56.5 µM (inactive) | 15.4 µM (inactive) | 42.7 µM (inactive) | > 100 | 59.4 µM (inactive) | 27.7 µM (inactive) | 15.6 µM (inactive) | > 100 µM (inactive) | > 100 µM (inactive) | 71.4 µM (inactive) | 36.3 µM (inactive) | 39.2 µM (inactive) | > 100 µM (inactive) | > 100 µM (inactive) | 58.1 µM (inactive) | 46.2 µM (inactive) | 50.4 µM (inactive) | 
17 | CC1=NCCc2c1[nH]c1cc(O)ccc21 [HARMALOL HYDROCHLORIDE] | > 100 µM (inactive) | > 100 µM (inactive) | > 100 µM (inactive) | > 100 | > 100 µM (inactive) | > 100 µM (inactive) | > 100 µM (inactive) | > 100 µM (inactive) | > 100 µM (inactive) | > 100 µM (inactive) | > 100 µM (inactive) | > 100 µM (inactive) | > 100 µM (inactive) | > 100 µM (inactive) | > 100 µM (inactive) | > 100 µM (inactive) | > 100 µM (inactive) | 
